In PubChem BioAssay AID1259407 (Chemical Carcinogenesis Research Information System (CCRIS), 2018) one finds mutagenic call data, which are given here for ten compounds.

Structures are written as SMILES. Activity calls are given as the source filed them. How the calls were made is not given here.

In the series the test system is CCRIS mutagenicity, Ames/micronucleus/aberration tests. The series can be described thus: CCRIS mutagenicity studies.
Where [1] appears, read: Test System: AMES SALMONELLA TYPHIMURIUM, Strain/Indicator: TA98, Metabolic Activation: NONE, Method: PREINCUBATION
The mark [2] stands for this setting: Test System: AMES SALMONELLA TYPHIMURIUM, Strain/Indicator: TA100, Metabolic Activation: NONE, Method: STANDARD PLATE.
The mark [3] stands for this setting: Test System: AMES SALMONELLA TYPHIMURIUM, Strain/Indicator: TA100, Metabolic Activation: RAT, LIVER, S-9, AROCLOR 1254, Method: STANDARD PLATE.
[4] abbreviates: Test System: AMES SALMONELLA TYPHIMURIUM, Strain/Indicator: TA98, Metabolic Activation: NONE, Method: STANDARD PLATE.
Setting [5] is: Test System: AMES SALMONELLA TYPHIMURIUM, Strain/Indicator: TA1535, Metabolic Activation: HAMSTER, LIVER, S-9, AROCLOR 1254, Method: STANDARD PLATE.
Where [6] appears, read: Test System: AMES SALMONELLA TYPHIMURIUM, Strain/Indicator: TA1535, Metabolic Activation: NONE, Method: STANDARD PLATE.
[7] abbreviates: Test System: AMES SALMONELLA TYPHIMURIUM, Strain/Indicator: TA1538, Metabolic Activation: NONE, Method: STANDARD PLATE.
[8] abbreviates: Test System: AMES SALMONELLA TYPHIMURIUM, Strain/Indicator: TA1538, Metabolic Activation: RAT, LIVER, S-9, AROCLOR 1254, Method: STANDARD PLATE.

In the case of `C[C@H](CCC(=O)O)[C@H]1CC[C@H]2[C@@H]3CC[C@@H]4C[C@H](O)CC[C@]4(C)[C@H]3C[C@H](O)[C@]12C`, the mutagenic call is, setting by setting: under setting [1], “inactive; negative”; (Test System: AMES SALMONELLA TYPHIMURIUM, Strain/Indicator: TA98, Method: PREINCUBATION) “inactive; negative”; under setting [2], “inactive; negative”; under setting [3], “inactive; negative”.

On to `Cc1cc2cc3ccccc3cc2c2ccccc12`, for which the mutagenic call by setting is: (Test System: AMES SALMONELLA TYPHIMURIUM, Strain/Indicator: TA100, Metabolic Activation: RAT, INTACT HEPATOCYTES, AROCLOR 1254, Method: PREINCUBATION) “active; positive”; (Test System: AMES SALMONELLA TYPHIMURIUM, Strain/Indicator: TA100, Metabolic Activation: RAT, NADPH-FORTIFIED HOMOGENIZED HEPATOCYTES, AROCLOR 1254, Method: PREINCUBATION) “active; positive”; (Test System: AMES SALMONELLA TYPHIMURIUM, Strain/Indicator: TA100, Metabolic Activation: RAT, SONICATED HEPATOCYTES, AROCLOR 1254, Method: PREINCUBATION) “active; positive”.

In the case of `CCn1c2ccccc2c2cc(C=O)ccc21`, where the note is “End Point: IN VITRO CHROMOSOMAL ABERRATIONS, Test System: CHL CELLS, Metabolic Activation: RAT, LIVER, S-9, SODIUM PHENOBARBITAL AND 5,6-BENZOFLAVONE”, the mutagenic call is “active; positive (structural changes)”.

Turning to `CC(C)CCCCCCOC(=O)CCCCC(=O)OCCCCCCC(C)C`, the mutagenic call (Test System: AMES SALMONELLA TYPHIMURIUM, Strain/Indicator: TA98, Metabolic Activation: HAMSTER, LIVER, S-9, AROCLOR 1254, Method: STANDARD PLATE) was “inactive; negative”; the mutagenic call under setting [4] is “inactive; negative”; the mutagenic call (Test System: AMES SALMONELLA TYPHIMURIUM, Strain/Indicator: TA98, Metabolic Activation: RAT, LIVER, S-9, AROCLOR 1254, Method: STANDARD PLATE) is “inactive; negative”; the mutagenic call (Test System: AMES SALMONELLA TYPHIMURIUM, Strain/Indicator: TA100, Metabolic Activation: HAMSTER, LIVER, S-9, AROCLOR 1254, Method: STANDARD PLATE) was “inactive; negative”; the mutagenic call under setting [2] is “inactive; negative”; the mutagenic call under setting [3] is “inactive; negative”. Besides, the mutagenic call is “inactive; negative” under setting [5]; “inactive; negative” under setting [6]; “inactive; negative” (Test System: AMES SALMONELLA TYPHIMURIUM, Strain/Indicator: TA1535, Metabolic Activation: RAT, LIVER, S-9, AROCLOR 1254, Method: STANDARD PLATE); “inactive; negative” (Test System: AMES SALMONELLA TYPHIMURIUM, Strain/Indicator: TA1537, Metabolic Activation: HAMSTER, LIVER, S-9, AROCLOR 1254, Method: STANDARD PLATE); “inactive; negative” (Test System: AMES SALMONELLA TYPHIMURIUM, Strain/Indicator: TA1537, Metabolic Activation: NONE, Method: STANDARD PLATE); “inactive; negative” (Test System: AMES SALMONELLA TYPHIMURIUM, Strain/Indicator: TA1537, Metabolic Activation: RAT, LIVER, S-9, AROCLOR 1254, Method: STANDARD PLATE). Besides, the mutagenic call reads like this: (Test System: AMES SALMONELLA TYPHIMURIUM, Strain/Indicator: TA1538, Metabolic Activation: HAMSTER, LIVER, S-9, AROCLOR 1254, Method: STANDARD PLATE) “inactive; negative”; under setting [7], “inactive; negative”; under setting [8], “inactive; negative”; (Test System: MOUSE LYMPHOMA, Strain/Indicator: L5178Y (TK+/TK-), Metabolic Activation: NONE, Method: SUSPENSION/PLATE) “inactive; negative”; (Test System: MOUSE LYMPHOMA, Strain/Indicator: L5178Y (TK+/TK-), Metabolic Activation: RAT, LIVER, S-9, AROCLOR 1254, Method: SUSPENSION/PLATE) “inactive; negative”.

As for `CNC(=O)N(C)C(=O)NO`, the mutagenic call is “inactive; negative” under setting [4] and “inactive; negative” under setting [2].

`CN(Cc1ccc(C(=O)O)cc1)N=O`: the mutagenic call is, setting by setting: under setting [5], “inactive; negative”; under setting [6], “inactive; negative”.

Regarding `C[C@]12CCC=C(C=O)[C@@]1(C=O)C2`, the mutagenic call is, setting by setting: under setting [4], “active; positive”; under setting [2], “active; positive”.

Turning to `CCN(CC)c1ccc(-c2ccccc2)c(-c2ccccc2)c1N(CC)CC`, the mutagenic call reads like this: under setting [7], “active; positive”; under setting [8], “active; positive”.

On to `C[n+]1c2ccccc2cc2cc(N)ccc21`, for which the mutagenic call is “inactive; negative” (Test System: AMES SALMONELLA TYPHIMURIUM, Strain/Indicator: TA1535, Metabolic Activation: NONE, Method: PREINCUBATION); “inactive; negative” (Test System: AMES SALMONELLA TYPHIMURIUM, Strain/Indicator: TA1535, Metabolic Activation: RAT, LIVER, S-9, TETRACHLOROBIPHENYL, Method: PREINCUBATION); “active; positive” (Test System: AMES SALMONELLA TYPHIMURIUM, Strain/Indicator: TA1537, Metabolic Activation: NONE, Method: PREINCUBATION); “active; positive” (Test System: AMES SALMONELLA TYPHIMURIUM, Strain/Indicator: TA1537, Metabolic Activation: RAT, LIVER, S-9, TETRACHLOROBIPHENYL, Method: PREINCUBATION); “active; positive” (Test System: AMES SALMONELLA TYPHIMURIUM, Strain/Indicator: TA1538, Metabolic Activation: NONE, Method: PREINCUBATION); “active; positive” (Test System: AMES SALMONELLA TYPHIMURIUM, Strain/Indicator: TA1538, Metabolic Activation: RAT, LIVER, S-9, TETRACHLOROBIPHENYL, Method: PREINCUBATION). For the same compound, the mutagenic call reads like this: (Test System: AMES SALMONELLA TYPHIMURIUM, Strain/Indicator: TA1977, Metabolic Activation: NONE, Method: PREINCUBATION) “active; positive”; (Test System: AMES SALMONELLA TYPHIMURIUM, Strain/Indicator: TA1977, Metabolic Activation: RAT, LIVER, S-9, TETRACHLOROBIPHENYL, Method: PREINCUBATION) “active; positive”; (Test System: AMES SALMONELLA TYPHIMURIUM, Strain/Indicator: TA1978, Metabolic Activation: NONE, Method: PREINCUBATION) “active; positive”; (Test System: AMES SALMONELLA TYPHIMURIUM, Strain/Indicator: TA1978, Metabolic Activation: RAT, LIVER, S-9, TETRACHLOROBIPHENYL, Method: PREINCUBATION) “active; positive”.

With `Cc1nccnc1C`, the mutagenic call under setting [1] was “inactive; negative”; the mutagenic call (Test System: AMES SALMONELLA TYPHIMURIUM, Strain/Indicator: TA98, Metabolic Activation: RAT, LIVER, S-9, AROCLOR 1254, Method: PREINCUBATION) is “inactive; negative”; the mutagenic call (Test System: AMES SALMONELLA TYPHIMURIUM, Strain/Indicator: TA100, Metabolic Activation: NONE, Method: PREINCUBATION) is “inactive; negative”; the mutagenic call (Test System: AMES SALMONELLA TYPHIMURIUM, Strain/Indicator: TA100, Metabolic Activation: RAT, LIVER, S-9, AROCLOR 1254, Method: PREINCUBATION) was “inactive; negative”; the mutagenic call (Test System: AMES SALMONELLA TYPHIMURIUM, Strain/Indicator: TA102, Metabolic Activation: NONE, Method: PREINCUBATION) is “inactive; negative”; the mutagenic call (Test System: AMES SALMONELLA TYPHIMURIUM, Strain/Indicator: TA102, Metabolic Activation: RAT, LIVER, S-9, AROCLOR 1254, Method: PREINCUBATION) was “inactive; negative”.
